US20060142247A1, “Tricyclic heterocycles” (priority 2004, published 2006)

tested on: HCT 116 cells; test: Viability assay HCT 116 cells (CellTiter-Glo); type: cell-based; settings: Homo sapiens, HCT-116, 120 h, HCT 116 human colon carcinoma cells, 5 days incubation, CellTiter-Glo luminescence
Description: Viability Assay—HCT 116 Cells
A viability assay was performed using the CellTiter-Glo® Luminescent Cell Viability Assay (see Promega Corporation's Technical Bulletin No. 288, pp. 1-11 [revised 2/04] which is hereby incorporated by reference in its entirety). This assay is a homogeneous method of determining the number of viable cells in culture based on quantitation of the ATP present, an indicator of metabolically active cells. The assay is designed for use with multiwell formats, making it ideal for automated high-throughput screening (HTS), cell proliferation and cytotoxicity assays. The homogeneous assay procedure involves adding a single reagent (containing luciferase, luciferan substrate, and buffer) directly to cells cultured in serum-supplemented medium. Cell washing, removal of medium and multiple pipetting steps are not required. The system detects as few as 15 cells/well in a 384-well format in 10 minutes after adding reagent and mixing.
The homogeneous “add-mix-measure” format results in cell lysis and generation of a luminescent signal proportional to the amount of ATP present. The amount of ATP is directly proportional to the number of cells present in culture. The above-referenced assay generates a “glow-type” luminescent signal, produced by the luciferase reaction, which has a half-life generally greater than five hours, depending on cell type and medium used. The extended half-life eliminates the need to use reagent injectors and provides flexibility for continuous or batch mode processing of multiple plates. The unique homogeneous format avoids errors that may be introduced by other ATP measurement methods that require multiple steps.
HCT 116 cells (human colon carcinoma, ATCC-No. CCl-247) were cultivated in RPMI 1640 medium with GlutaMAX™ I (cell culture media that contains L-Alanyl-L-Glutamine [a stabilized a form/source of L-Glutamine] from Invitrogen, Cat-No. 61870-010), 2.5% Fetal Calf Serum (FCS, Sigma Cat-No. F4135 (FBS)); 100 Units/ml penicillin/100 μg/ml streptomycin (=Pen/Strep from Invitrogen Cat. No. 15140). For the assay the cells were seeded in 384 well plates, 1000 cells per well, in the same medium. The next day the test compounds were added in various concentrations ranging from 30 μM to 0.0015 μM (10 concentrations, 1:3 diluted). After 5 days the viability assay was done according to the instructions of the manufacturer. In brief: the cell-plate was equilibrated to room temperature for approximately 30 minutes and than the reagent (containing luciferase, luciferan substrate, and buffer) was added. The contents were carefully mixed for 15 minutes to induce cell lysis. After 45 minutes the luminescent signal was measured in Victor 2, (scanning multiwell spectrophotometer, Wallac).
Medium: RPMI 1640 with cell culture media containing L-Alanyl-L-Glutamine [GlutaMAX™ I (Invitrogen, Cat-Nr. 61870)], 5% FCS (Sigma Cat.-No. F4135), Pen/Strep (Invitrogen, Cat No. 15140). • HCT116 (ATCC-No. CCl-247): 1000 cells in 60 μl per well of 384 well plate (Greiner 781098, μClear-plate white) • After seeding incubate plates 24 h at 37° C., 5% CO2 2nd. Day: Induction (Treatment with Compounds, 10 Concentrations):
In order to achieve a final concentration of 30 μM as highest concentration […] of 10 mM compound stock solution were added directly to 163 μl media. Then step e) of the dilution procedure described below, was followed.

Row | IC50 | SMILES
1 | 100 to 1000 nM | CCN1C(=O)C(C)(C)c2cc3nc(-c4n[nH]c5ccc(C(=O)NCc6ccc(F)cc6F)cc45)[nH]c3cc21 [Example 85, 3-(5-Ethyl-7,7-dimethyl-6-oxo-3,5,6,7-tetrahydro-imidazo[4,5-f]indol-2-yl)-1H-indazole-5-carboxylic acid 2,4-difluoro-benzylamide]
2 | 100 to 1000 nM | CCN1C(=O)C(C)(C)c2cc3nc(-c4n[nH]c5ccc(C(=O)NCc6cccc(OC(F)(F)F)c6)cc45)[nH]c3cc21 [Example 86, 3-(5-Ethyl-7,7-dimethyl-6-oxo-3,5,6,7-tetrahydro-imidazo[4,5-f]indol-2-yl)-1H-indazole-5-carboxylic acid 3-trifluoromethoxy-benzylamide]
3 | 100 to 1000 nM | CCN1C(=O)C(C)(C)c2cc3nc(-c4n[nH]c5ccc(C(=O)NCc6cccc(Cl)c6)cc45)[nH]c3cc21 [Example 88, 3-(5-Ethyl-7,7-dimethyl-6-oxo-3,5,6,7-tetrahydro-imidazo[4,5-f]indol-2-yl)-1H-indazole-5-carboxylic acid 3-chloro-benzylamide]
4 | 100 to 1000 nM | CCN1C(=O)C(C)(C)c2cc3nc(-c4n[nH]c5ccc(C(=O)N6CCSCC6)cc45)[nH]c3cc21 [Example 95, 5-Ethyl-7,7-dimethyl-2-[5-(thiomorpholine-4-carbonyl)-1H-indazol-3-yl]-5,7-dihydro-3H-imidazo[4,5-f]indol-6-one]
5 | 100 to 1000 nM | CCN1C(=O)C(C)(C)c2cc3nc(-c4n[nH]c5ccc(C(=O)N6CCSC6)cc45)[nH]c3cc21 [Example 96, 5-Ethyl-7,7-dimethyl-2-[5-(thiazolidine-3-carbonyl)-1H-indazol-3-yl]-5,7-dihydro-3H-imidazo[4,5-f]indol-6-one]
6 | 1000 to 10000 nM | CCN1C(=O)C(C)(C)c2cc3nc(-c4n[nH]c5ccc(C(N)=O)cc45)[nH]c3cc21 [Example 100, 3-(5-Ethyl-7,7-dimethyl-6-oxo-3,5,6,7-tetrahydro-imidazo[4,5-f]indol-2-yl)-1H-indazole-5-carboxylic acid amide]
7 | 100 to 1000 nM | CCN1C(=O)C(C)(C)c2cc3nc(-c4n[nH]c5ccc(C(=O)OC)cc45)[nH]c3cc21 [Example 101, 3-(5-Ethyl-7,7-dimethyl-6-oxo-3,5,6,7-tetrahydro-imidazo[4,5-f]indol-2-yl)-1H-indazole-5-carboxylic acid methyl ester]
8 | 100 to 1000 nM | CCN1C(=O)C(C)(C)c2cc3nc(-c4n[nH]c5ccc(C(C)=O)cc45)[nH]c3cc21 [Example 103, 2-(5-Acetyl-1H-indazol-3-yl)-5-ethyl-7,7-dimethyl-5,7-dihydro-3H-imidazo[4,5-f]indol-6-one]
9 | 1000 to 10000 nM | CC1(C)C(=O)Nc2cc3[nH]c(-c4n[nH]c5cc(C(=O)NCc6ccccc6)ccc45)nc3cc21 [Example 104, 3-(7,7-Dimethyl-6-oxo-3,5,6,7-tetrahydro-imidazo[4,5-f]indol-2-yl)-1H-indazole-6-carboxylic acid benzylamide]
10 | 100 to 1000 nM | CCN1C(=O)C(C)(C)c2cc3nc(-c4n[nH]c5cc(C(=O)Nc6ccccc6)ccc45)[nH]c3cc21 [Example 108, 3-(5-Ethyl-7,7-dimethyl-6-oxo-3,5,6,7-tetrahydro-imidazo[4,5-f]indol-2-yl)-1H-indazole-6-carboxylic acid phenylamide]
11 | 1000 to 10000 nM | CCN1C(=O)C(C)(C)c2cc3nc(-c4n[nH]c5cc(C(N)=O)ccc45)[nH]c3cc21 [Example 110, 3-(5-Ethyl-7,7-dimethyl-6-oxo-3,5,6,7-tetrahydro-imidazo[4,5-f]indol-2-yl)-1H-indazole-6-carboxylic acid amide]
12 | 100 to 1000 nM | CCN1C(=O)C(C)(C)c2cc3[nH]c(-c4n[nH]c5ccc(NC(=O)Cc6ccccc6C)cc45)nc3cc21 [Example 113, N-[3-(5-Ethyl-7,7-dimethyl-6-oxo-1,5,6,7-tetrahydro-imidazo[4,5-f]indol-2-yl)-1H-indazol-5-yl]-2-o-tolyl-acetamide]
13 | 100 to 1000 nM | CCN1C(=O)C(C)(C)c2cc3[nH]c(-c4n[nH]c5ccc(NC(=O)c6ccccn6)cc45)nc3cc21 [Example 116, Pyridine-2-carboxylic acid [3-(5-ethyl-7,7-dimethyl-6-oxo-1,5,6,7-tetrahydro-imidazo[4,5-f]indol-2-yl)-1H-indazol-5-yl]-amide]
14 | 100 to 1000 nM | CCN1C(=O)C(C)(C)c2cc3[nH]c(-c4n[nH]c5ccc(NC(=O)Cc6ccc(C)cc6)cc45)nc3cc21 [Example 117, N-[3-(5-Ethyl-7,7-dimethyl-6-oxo-1,5,6,7-tetrahydro-imidazo[4,5-f]indol-2-yl)-1H-indazol-5-yl]-2-p-tolyl-acetamide]
15 | 100 to 1000 nM | CCC(=O)Nc1ccc2[nH]nc(-c3nc4cc5c(cc4[nH]3)C(C)(C)C(=O)N5CC)c2c1 [Example 122, N-[3-(5-Ethyl-7,7-dimethyl-6-oxo-1,5,6,7-tetrahydro-imidazo[4,5-f]indol-2-yl)-1H-indazol-5-yl]-propionamide]
16 | 1000 to 10000 nM | CCN1C(=O)C(C)(C)c2cc3[nH]c(-c4n[nH]c5ccc(NC(=O)N6CCOCC6)cc45)nc3cc21 [Example 128, Morpholine-4-carboxylic acid [3-(5-ethyl-7,7-dimethyl-6-oxo-1,5,6,7-tetrahydro-imidazo[4,5-f]indol-2-yl)-1H-indazol-5-yl]-amide]
17 | 100 to 1000 nM | CCN1C(=O)C(C)(C)c2cc3[nH]c(-c4n[nH]c5ccc(NC(=O)OCc6ccccc6)cc45)nc3cc21 [Example 130, [3-(5-Ethyl-7,7-dimethyl-6-oxo-1,5,6,7-tetrahydro-imidazo[4,5-f]indol-2-yl)-1H-indazol-5-yl]-carbamic acid benzyl ester]
18 | 100 to 1000 nM | CCN1C(=O)C(C)(C)c2cc3[nH]c(-c4n[nH]c5ccc(NS(=O)(=O)c6ccccc6)cc45)nc3cc21 [Example 132, N-[3-(5-Ethyl-7,7-dimethyl-6-oxo-1,5,6,7-tetrahydro-imidazo[4,5-f]indol-2-yl)-1H-indazol-5-yl]-benzenesulfonamide]
19 | 100 to 1000 nM | CCN1C(=O)C(C)(C)c2cc3[nH]c(-c4n[nH]c5ccc(NS(=O)(=O)c6ccccc6[N+](=O)[O-])cc45)nc3cc21 [Example 134, N-[3-(5-Ethyl-7,7-dimethyl-6-oxo-1,5,6,7-tetrahydro-imidazo[4,5-f]indol-2-yl)-1H-indazol-5-yl]-2-nitro-benzenesulfonamide]
20 | 100 to 1000 nM | CCN1C(=O)C(C)(C)c2cc3[nH]c(-c4n[nH]c5ccc(NS(=O)(=O)c6ccc(F)cc6)cc45)nc3cc21 [Example 137, N-[3-(5-Ethyl-7,7-dimethyl-6-oxo-1,5,6,7-tetrahydro-imidazo[4,5-f]indol-2-yl)-1H-indazol-5-yl]-4-fluoro-benzenesulfonamide]
21 | 100 to 1000 nM | CCN1C(=O)C(C)(C)c2cc3[nH]c(-c4n[nH]c5ccc(NS(=O)(=O)c6cccc(Cl)c6)cc45)nc3cc21 [Example 138, 3-Chloro-N-[3-(5-ethyl-7,7-dimethyl-6-oxo-1,5,6,7-tetrahydro-imidazo[4,5-f]indol-2-yl)-1H-indazol-5-yl]-benzenesulfonamide]
22 | 100 to 1000 nM | CCN1C(=O)C(C)(C)c2cc3[nH]c(-c4n[nH]c5ccc(NS(=O)(=O)c6ccccc6S(C)(=O)=O)cc45)nc3cc21 [Example 140, N-[3-(5-Ethyl-7,7-dimethyl-6-oxo-1,5,6,7-tetrahydro-imidazo[4,5-f]indol-2-yl)-1H-indazol-5-yl]-2-methanesulfonyl-benzenesulfonamide]
